Experimental data published in US20080090900A1, “ANTIBIOTIC BUSHRIN” (University of Karachi, priority 2006, published 2008).

Tested on: Clostridium sporogenes
Experiment: microbe, parasite or virus in culture
Type: cell-based

## Cc1cc(O)c2c(c1)C=CC(C)(c1ccoc1)C2 (stereo not shown) [Compound 1, 7-(3-furyl)-3,7-dimethyl-7,8-dihydro-1-naphthalenol]
  antibacterial activity: less active
